Reference: US4594356A, “Method for inducing mydriasis in animals” (Key Pharmaceuticals, Inc., priority 1985, dated 1986)
Like-named read-outs stand apart in the source and are kept apart here.

Columns and labels:
pupil [1] = experiment: Mydriatic study: pupil diameter difference between drug-treated and saline-treated eye in normal albino rabbits; type: in vivo, New Zealand male albino rabbits; details: drug eye vs saline eye difference
Experimental: Normal New Zealand male albino rabbits weighing from 2 to 3 kg. were used in the studies. The animals were placed in fiberglass restraining cages at least a half hour before the experiment and remained there throughout the test. The cages were located in a light and temperature controlled room. Pupil diameter was measured with a monostat vernier caliper held at a constant distance from observer and animal eyes. Drug solutions were formulated by dissolving the test agent in 0.9% saline solutions.
In the test procedure, a standard dose volume of 0.05 ml of the drug solution was applied to one eye and 0.9% saline was applied to the other eye of the same animal. The differences in the same animals between pupil diameter in millimeters of the eye with drug applied against the other eye with only saline instilled were recorded.
The pupillary dose response results are shown below in Table I.

[2] = Enzymatic hydrolysis in iris/ciliary body homogenate at 37° C.; type: in vitro ADME, New Zealand albino rabbits; details: Iris/ciliary body 10% homogenate, pH 7.4, 37° C.
Experimental: (§1) The stability of the ethyl succinyl derivative in isotonic saline buffer was determined in order to contrast the rates of hydrolysis of a chemical system with those of the ocular enzymatic systems. Ocular tissues were obtained from New Zealand albino rabbits. Homogenates were prepared in isotonic saline with a potassium phosphate buffer pH 7.4. High pressure liquid chromatography systems with spectrophotometric (254 nm) and electrochemical detection were used for determination.

[3] = Enzymatic hydrolysis in aqueous humor at 37° C.; type: in vitro ADME, New Zealand albino rabbits
Experimental: as §1

[4] = Enzymatic hydrolysis in corneal tissue homogenate at 37° C.; type: in vitro ADME, New Zealand albino rabbits; details: Corneal tissue 10% homogenate, pH 7.4, 37° C.
Experimental: as §1

[5] = Enzymatic hydrolysis in human plasma at 37° C.; type: in vitro ADME
[6] = Stability in isotonic saline buffer pH 7.4 at 37° C.; type: physicochemical; details: Isotonic saline pH 7.4, 37° C.
Experimental: as §1

intraocular pressure [7] = details: cited from earlier work; for ocular tension (intraocular pressure) reduction: clinical study
glaucoma = details: cited from earlier work
intraocular pressure [8] = details: cited from earlier work
[9] = Half-life of adrenalone diesters (R methyl, R1 = R2); type: in vitro ADME; details: R is methyl, medium not stated, read-out: half-life (t1/2)
Description: Further, it should be noted that R is preferrably methyl.

[10] = Ocular distribution after topical administration of the diester; type: in vivo; details: after topical administration of compound of Formula I (formed by hydrolysis / reduction-hydrolysis)
Description: Thus, topical adminstration of a compound of Formula I to the eye of an animal effectively induces pupil diameter enlargement and lowers intraocular pressure for a limited duration as a novel type of site-specific delivery system for epinephrine without the concomitant appearance of any significant undesirable side-effects associated with the prior art.

pupil [11] = details: 2% solution; cited from earlier work
eye [12] = details: cited from earlier work
eye [13] = details: cited from earlier work; for ocular sympathomimetic activity: in vivo; for potency relative to dipivalyl epinephrine: on a molar basis
eye [14] = details: in vivo; cited from earlier work
eye [15] = details: topical, prolonged usage; cited from earlier work

CCOC(=O)CCC(=O)Oc1ccc(C(=O)CNC)cc1OC(=O)CCC(=O)OCC [0,0-di(ethylsuccinyl) adrenalone hydroperchlorate]
Pupil diameter (X ± S.E.) (pupil [1]; 1.0×10^-2 M, 10 minutes): 0.34 mm | Pupil diameter (X ± S.E.) (pupil [1]; 1.0×10^-2 M, 20 minutes): 0.43 mm | Pupil diameter (X ± S.E.) (pupil [1]; 1.0×10^-2 M, 30 minutes): 1.27 mm | Pupil diameter (X ± S.E.) (pupil [1]; 1.0×10^-2 M, 60 minutes): 1.42 mm | Pupil diameter (X ± S.E.) (pupil [1]; 1.0×10^-2 M, 120 minutes): 0.18 mm | Pupil diameter (X ± S.E.) (pupil [1]; 1.0×10^-2 M, 180 minutes): 0.37 mm | Pupil diameter (X ± S.E.) (pupil [1]; 1.5×10^-2 M, 10 minutes): 0.33 mm | Pupil diameter (X ± S.E.) (pupil [1]; 1.5×10^-2 M, 20 minutes): 0.80 mm | Pupil diameter (X ± S.E.) (pupil [1]; 1.5×10^-2 M, 30 minutes): 1.10 mm | Pupil diameter (X ± S.E.) (pupil [1]; 1.5×10^-2 M, 60 minutes): 2.13 mm | Pupil diameter (X ± S.E.) (pupil [1]; 1.5×10^-2 M, 120 minutes): 0.34 mm | Pupil diameter (X ± S.E.) (pupil [1]; 1.5×10^-2 M, 180 minutes): 0.16 mm | Pupil diameter (X ± S.E.) (pupil [1]; 2.0×10^-2 M, 10 minutes): 0.69 mm | Pupil diameter (X ± S.E.) (pupil [1]; 2.0×10^-2 M, 20 minutes): 1.12 mm | Pupil diameter (X ± S.E.) (pupil [1]; 2.0×10^-2 M, 30 minutes): 1.64 mm | Pupil diameter (X ± S.E.) (pupil [1]; 2.0×10^-2 M, 60 minutes): 3.11 mm | Pupil diameter (X ± S.E.) (pupil [1]; 2.0×10^-2 M, 120 minutes): 0.79 mm | Pupil diameter (X ± S.E.) (pupil [1]; 2.0×10^-2 M, 180 minutes): 0.31 mm | Pupil diameter (X ± S.E.) (pupil [1]; 2.4×10^-3 M, 10 minutes): 0.15 mm | Pupil diameter (X ± S.E.) (pupil [1]; 2.4×10^-3 M, 20 minutes): 0.18 mm | Pupil diameter (X ± S.E.) (pupil [1]; 2.4×10^-3 M, 30 minutes): 0.20 mm | Pupil diameter (X ± S.E.) (pupil [1]; 2.4×10^-3 M, 60 minutes): 0.30 mm | Pupil diameter (X ± S.E.) (pupil [1]; 2.4×10^-3 M, 120 minutes): 0.08 mm | Pupil diameter (X ± S.E.) (pupil [1]; 2.4×10^-3 M, 180 minutes): 0.11 mm | Pupil diameter (X ± S.E.) (pupil [1]; 2.5×10^-2 M, 10 minutes): 0.44 mm | Pupil diameter (X ± S.E.) (pupil [1]; 2.5×10^-2 M, 20 minutes): 1.99 mm | Pupil diameter (X ± S.E.) (pupil [1]; 2.5×10^-2 M, 30 minutes): 2.90 mm | Pupil diameter (X ± S.E.) (pupil [1]; 2.5×10^-2 M, 60 minutes): 3.29 mm | Pupil diameter (X ± S.E.) (pupil [1]; 2.5×10^-2 M, 120 minutes): 1.66 mm | Pupil diameter (X ± S.E.) (pupil [1]; 2.5×10^-2 M, 180 minutes): 0.22 mm | Pupil diameter (X ± S.E.) (pupil [1]; 5.0×10^-3 M, 10 minutes): 0.20 mm | Pupil diameter (X ± S.E.) (pupil [1]; 5.0×10^-3 M, 20 minutes): 0.56 mm | Pupil diameter (X ± S.E.) (pupil [1]; 5.0×10^-3 M, 30 minutes): 0.82 mm | Pupil diameter (X ± S.E.) (pupil [1]; 5.0×10^-3 M, 60 minutes): 0.78 mm | Pupil diameter (X ± S.E.) (pupil [1]; 5.0×10^-3 M, 120 minutes): 0.46 mm | Pupil diameter (X ± S.E.) (pupil [1]; 5.0×10^-3 M, 180 minutes): 0.58 mm | k (hydrolysis rate constant) [2]: 7.91 min^-1 × 10^-1 | half-life ([2]; rabbit): 0.88 min | k (hydrolysis rate constant) [3]: 5.09 min^-1 × 10^-1 | half-life ([3]; rabbit): 1.36 min | k (hydrolysis rate constant) [4]: 3.08 min^-1 × 10^-1 | half-life ([4]; rabbit): 2.25 min | half-life [5]: 1.01 min | k (hydrolysis rate constant) [5]: 6.68 min^-1 × 10^-1 | k (hydrolysis rate constant) [6]: 0.04 min^-1 × 10^-1 | half-life ([6]; isotonic saline buffer): 173 min

CNC[C@H](O)c1ccc(O)c(O)c1 [1-adrenaline]
ocular tension (intraocular pressure) reduction (intraocular pressure [7]): lowered ocular tension

CC(C)NCC(=O)c1ccc(O)c(O)c1 [3,4-dihydroxy-2-(isopropylamino) acetophenone]
mydriatic activity (side-effect) (glaucoma; in vivo): toxic, harmful or deleterious side-effect | treatment of glaucoma (glaucoma; in vivo): successful treatment of glaucoma | concentration needed to achieve the desired result (glaucoma; treatment of glaucoma): 3%

CC(C)NCC(O)c1ccc(O)c(O)c1 (stereo not drawn) [Isoproterenol]
intraocular pressure reduction (intraocular pressure [8]; in vivo): satisfactorily reduced intraocular pressure | mydriasis (intraocular pressure [8]; in vivo): causing mydriasis | serious side-effects (intraocular pressure [8]; treatment of glaucoma): taachycardia, weakness, and palpatations were observed

CCOC(=O)CCC(=O)Oc1ccc(C(=O)CNC)cc1OC(=O)CCC(=O)OCC [R1 = R2 (1)]
half-life [9]: 1.01 min

CCCC(=O)Oc1ccc(C(=O)CNC)cc1OC(=O)CCC [R1 = R2 (2)]
half-life [9]: 2.13 min

CCCCCC(=O)Oc1ccc(C(=O)CNC)cc1OC(=O)CCCCC [R1 = R2 (3)]
half-life [9]: 2.96 min

CCN(CC)C(=O)CCC(=O)Oc1ccc(C(=O)CNC)cc1OC(=O)CCC(=O)N(CC)CC [R1 = R2 (4)]
half-life [9]: 8.55 min

CNCC(=O)c1ccc(OC(=O)C=Cc2ccccc2)c(OC(=O)C=Cc2ccccc2)c1 [R1 = R2 (5)]
half-life [9]: 10.1 min

CNCC(=O)c1ccc(OC(=O)CC(C)C)c(OC(=O)CC(C)C)c1 [R1 = R2 (6)]
half-life [9]: 19.2 min

CNCC(=O)c1ccc(OC(=O)C(C)(C)C)c(OC(=O)C(C)(C)C)c1 [R1 = R2 (7)]
half-life [9]: 57.8 min

CNCC(=O)c1ccc(O)c(O)c1 [adrenalone]
ocular distribution [10]: found in every compartment of the eye | intraocular pressure reduction (intraocular pressure [7]; 2% solution, patients suffering from glaucoma): did not cause any reduction in the intraocular pressure | ocular tension (intraocular pressure) reduction (intraocular pressure [7]): do not | mydriatic activity (pupil [11]): only a minimal level of mydriatic activity | mydriasis (eye [12]; high concentrations): will not produce mydriasis | reduction in the eye to adrenalin (eye [12]; topical administration): not reduced in the eye to the active adrenalin

CNC[C@@H](O)c1ccc(O)c(O)c1 [d-adrenalin]
ocular tension (intraocular pressure) reduction (intraocular pressure [7]): do not

CNCC(=O)c1ccc(OC(=O)CC(C)C)c(OC(=O)CC(C)C)c1 [diisovaleryl]
ocular sympathomimetic activity (eye [13]): High ocular sympathomimetic activity | potency relative to dipivalyl epinephrine (eye [13]): more potent on a molar basis than the successful prodrug of epinephrine, dipivalyl epinephrine

CNCC(=O)c1ccc(OC(=O)C(C)(C)C)c(OC(=O)C(C)(C)C)c1 [dipivalyl]
ocular sympathomimetic activity (eye [13]): High ocular sympathomimetic activity | potency relative to dipivalyl epinephrine (eye [13]): more potent on a molar basis than the successful prodrug of epinephrine, dipivalyl epinephrine | recovery of normal vision (eye [14]): did not achieve faster recovery of normal vision

CNC[C@H](O)c1ccc(O)c(O)c1 [epinephrine]
ocular distribution [10]: found only in the uveal (iris-ciliary body) tissues | mydriasis (side effect) (eye [15]): frequently causes mydriasis | retinal maculopathy (side effect) (eye [15]): sometimes retinal maculopathy
